Pest or weed control data for 6 compounds are collected here from patent publication US8828908B2, “Herbicidally active bicyclic 1,3-dione compounds” (Syngenta Limited, priority 2007, dated 2014).

What all share (type): in vivo
Assay [1] relates to Echinochloa crus-galli (ECHCG). Kind of assay: Example A pre-emergence herbicidal glasshouse test. The conditions noted are these: 312 h, Rate 250 g/ha, evaluated after 13 days, 100=total damage to plant, 0=no damage to plant. The method, boiled down:
(§1)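 Glasshouse pot assay: 24/16 °C, 14 h light, 65% humidity, twice-daily watering. Spray timing was 1 day after sowing (pre) or 8 days (post); vehicle acetone/water 50:50 with 0.5% Tween 20. Plants were rated 13 days after treatment, 100 meaning total damage.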

The subject of assay [2] is Amaranthus retroflexus (AMARE). In words: Example A pre-emergence herbicidal glasshouse test. The note with it: 312 h, Rate 250 g/ha, evaluated after 13 days, 100=total damage to plant, 0=no damage to plant. In a few lines: as §1
Assay [3] has as its system Avena fatua (AVEFA). Kind of assay: Example A pre-emergence herbicidal glasshouse test. The conditions noted are these: 312 h, Rate 250 g/ha, evaluated after 13 days, 100=total damage to plant, 0=no damage to plant. In a few lines:
as §1

Assay [4] relates to Setaria faberi (SETFA). In words: Example A pre-emergence herbicidal glasshouse test. The note with it: 312 h, Rate 250 g/ha, evaluated after 13 days, 100=total damage to plant, 0=no damage to plant. The method, boiled down:
as §1

Assay [5] has as its system Alopecurus myosuroides (ALOMY). In words: Example A pre-emergence herbicidal glasshouse test. The note with it: 312 h, Rate 250 g/ha, evaluated after 13 days, 100=total damage to plant, 0=no damage to plant. The method, boiled down: as §1
Assay [6] relates to Echinochloa crus-galli (ECHCG). Kind of assay: Example B pre-emergence herbicidal greenhouse test. The note with it: 480 h, evaluated after 20 days, 100=total damage to plant, 0=no damage. The method, boiled down:
(§2)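 Seeds sown in standard soil in pots; after 1 day (pre-emergence) or 10 days (post-emergence) of glasshouse cultivation, pots were sprayed with an aqueous solution of the ingredient formulated in acetone plus an emulsifier/solvent mix. Damage scored 20 days (pre) or 15 days (post) later, 0 (none) to 100 (total).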

Assay [7] relates to Lolium perenne (LOLPE). In words: Example B pre-emergence herbicidal greenhouse test. The note with it: 480 h, evaluated after 20 days, 100=total damage to plant, 0=no damage. The method, boiled down:
as §2

For assay [8], the system named is Avena fatua (AVEFA). Kind of assay: Example B pre-emergence herbicidal greenhouse test. The note with it: 480 h, evaluated after 20 days, 100=total damage to plant, 0=no damage. The method, boiled down:
as §2

The test system of assay [9] is Setaria faberi (SETFA). In words: Example B pre-emergence herbicidal greenhouse test. The note with it: 480 h, evaluated after 20 days, 100=total damage to plant, 0=no damage. In a few lines:
as §2

Assay [10] concerns Alopecurus myosuroides (ALOMY). Kind of assay: Example B pre-emergence herbicidal greenhouse test. The note with it: 480 h, evaluated after 20 days, 100=total damage to plant, 0=no damage. The method, boiled down:
as §2

Assay [11] concerns Digitaria sanguinalis (DIGSA). In words: Example B pre-emergence herbicidal greenhouse test. The note with it: 480 h, evaluated after 20 days, 100=total damage to plant, 0=no damage. In a few lines: as §2
Assay [12] relates to Echinochloa crus-galli (ECHCG). In words: Example B post-emergence herbicidal greenhouse test. The note with it: 360 h, evaluated after 15 days, 100=total damage to plant, 0=no damage. In a few lines:
as §2

For assay [13], the system named is Lolium perenne (LOLPE). Described as above. The note with it: 360 h, evaluated after 15 days, 100=total damage to plant, 0=no damage. In a few lines:
as §2

Assay [14] has as its system Avena fatua (AVEFA). Described as above. The conditions noted are these: 360 h, evaluated after 15 days, 100=total damage to plant, 0=no damage. In a few lines: as §2
Assay [15] relates to Setaria faberi (SETFA). The assay is described as above. The note with it: 360 h, evaluated after 15 days, 100=total damage to plant, 0=no damage. The method, boiled down: as §2
In assay [16] the test system is Alopecurus myosuroides (ALOMY). Described as above. The note with it: 360 h, evaluated after 15 days, 100=total damage to plant, 0=no damage. The method, boiled down:
as §2

Assay [17] has as its system Digitaria sanguinalis (DIGSA). Described as above. The note with it: 360 h, evaluated after 15 days, 100=total damage to plant, 0=no damage. In a few lines: as §2
The subject of assay [18] is Echinochloa crus-galli (ECHCG). Kind of assay: Example A post-emergence herbicidal glasshouse test. The note with it: 312 h, evaluated after 13 days, 100=total damage to plant, 0=no damage. The method, boiled down: as §1
The subject of assay [19] is Amaranthus retroflexus (AMARE). The description is as above. The note with it: 312 h, evaluated after 13 days, 100=total damage to plant, 0=no damage. In a few lines:
as §1

For assay [20], the system named is Avena fatua (AVEFA). The assay is described as above. The note with it: 312 h, evaluated after 13 days, 100=total damage to plant, 0=no damage. The method, boiled down:
as §1

Assay [21] deals with Setaria faberi (SETFA). The assay is described as above. The note with it: 312 h, evaluated after 13 days, 100=total damage to plant, 0=no damage. The method, boiled down: as §1
In assay [22] the test system is Alopecurus myosuroides (ALOMY). The description is as above. The note with it: 312 h, evaluated after 13 days, 100=total damage to plant, 0=no damage. The method, boiled down:
as §1

SMILES strings stand for the structures.

Turning to `CCc1ccc(-c2ccc(Cl)cc2OC)cc1C1=C(O)[C@H]2CC[C@H](C2)C1=O` (single isomer, unassigned) [Compound T43], the pest or weed control at 250 g/ha in [1] is 90%; in [2], 0%; in [3], 0%; in assay [4] it was 30%; in assay [5], 0%; in assay [6], 40%. For the same compound, the pest or weed control at 250 g/ha worked out at 0% in assay [7]; 60% in assay [8]; 20% in [9]; 0% in [10]; 60% in [11]; 90% in assay [18]. Moreover, the pest or weed control at 250 g/ha in assay [19] is 0%; in assay [20], 40%; in assay [21], 80%; in [22], 50%. For the same compound, the pest or weed control at 125 g/ha in assay [12] turned out to be 70%; in [13] it was 30%; in assay [14], 0%; in [15], 60%; in [16], 0%; in assay [17], 50%.
As for `CCc1ccc(-c2ccc(Cl)cc2)cc1C1=C(O)[C@H]2C=C[C@H](CC2)C1=O` (single isomer, unassigned) [Compound T55], the pest or weed control at 250 g/ha in [1] amounted to 70%; in assay [2], 0%; in [3], 0%; in assay [4], 90%; in assay [5], 0%; in assay [6], 50%. For the same compound, the pest or weed control at 250 g/ha in assay [7] worked out at 60%; in assay [8], 30%; in assay [9] it was 10%; in assay [10] it was 10%; in assay [11], 30%; in assay [18], 100%. The pest or weed control at 250 g/ha came to 0% in assay [19], 20% in assay [20], 100% in assay [21] and 50% in assay [22]. The pest or weed control at 125 g/ha in assay [12] stood at 100%; in [13], 80%; in assay [14], 70%; in assay [15], 100%; in [16] it was 60%; in assay [17], 100%.
Consider `CCc1cc(-c2ccc(Cl)cc2)ccc1C1=C(OC(C)=O)[C@@H]2CC[C@@H](C2)C1=O` [Compound P3], for which the pest or weed control at 250 g/ha was determined as 70% in [1]; 0% in [2]; 40% in assay [3]; 80% in assay [4]; 60% in [5]; 50% in [6]. In addition, the pest or weed control at 250 g/ha was 50% in assay [7]; 10% in assay [8]; 60% in [9]; 30% in assay [10]; 70% in assay [11]; 100% in [18]. For the same compound, the pest or weed control at 250 g/ha was determined as 0% in assay [19], 80% in [20], 100% in assay [21] and 90% in [22]. The pest or weed control at 125 g/ha in assay [12] turned out to be 80%; in [13], 80%; in assay [14], 80%; in assay [15], 80%; in [16], 90%; in [17] it was 90%.
As for `CCc1ccc(-c2ccc(Cl)c(C)c2)cc1C1=C(O)[C@H]2CC[C@H](C2)C1=O` [Compound T32, 3-(4′-chloro-4-ethyl-3′-methylbiphen-3-yl)bicyclo[3.2.1]octane-2,4-dione], the pest or weed control at 250 g/ha came to 100% in assay [1]; 0% in [2]; 40% in assay [3]; 20% in [4]; 30% in assay [5]; 100% in assay [6]. Further, the pest or weed control at 250 g/ha in assay [7] is 90%; in [8] it was 10%; in [9], 60%; in assay [10], 90%; in assay [11] it was 100%; in assay [18] it was 100%. In addition, the pest or weed control at 250 g/ha in [19] stood at 0%; in assay [20], 0%; in assay [21], 90%; in [22], 60%. The pest or weed control at 125 g/ha in [12] came to 100%; in assay [13], 0%; in assay [14] it was 10%; in assay [15], 30%; in assay [16], 30%; in assay [17], 70%.
As for `CCc1ccc(-c2ccc(Cl)cc2Cl)cc1C1=C(O)[C@H]2CC[C@H](C2)C1=O` [Compound T44, 3-(2′,4′-dichloro-4-ethylbiphen-3-yl)bicyclo[3.2.1]octane-2,4-dione], the pest or weed control at 250 g/ha came out at 90% in assay [1]; 0% in assay [2]; 20% in assay [3]; 100% in [4]; 50% in [5]; 50% in assay [6]. Further, the pest or weed control at 250 g/ha in assay [7] is 10%; in assay [8] it was 10%; in assay [9], 70%; in assay [10], 0%; in assay [11], 80%; in [18], 100%. Moreover, the pest or weed control at 250 g/ha was 0% in assay [19], 90% in assay [20], 100% in assay [21] and 90% in assay [22]. Also, the pest or weed control at 125 g/ha in assay [12] amounted to 100%; in [13] it was 30%; in assay [14] it was 90%; in assay [15] it was 100%; in assay [16] it was 60%; in assay [17] it was 100%.
On to `CCc1ccc(-c2ccc(Cl)cc2)cc1C1=C(O)[C@H]2CC[C@H](CC2)C1=O` [Compound T54, 3-(4′-chloro-4-ethylbiphen-3-yl)bicyclo[3.2.2]nonane-2,4-dione], for which the pest or weed control at 250 g/ha stood at 100% in [1]; 40% in assay [2]; 90% in assay [3]; 100% in assay [4]; 90% in [5]; 100% in assay [6]. The pest or weed control at 250 g/ha in [7] worked out at 100%; in assay [8], 50%; in assay [9], 90%; in assay [10], 70%; in assay [11] it was 100%; in [18], 100%. Further, the pest or weed control at 250 g/ha in assay [19] was 0%; in [20] it was 100%; in [21], 100%; in assay [22] it was 100%. The pest or weed control at 125 g/ha in assay [12] came to 100%; in assay [13], 60%; in [14] it was 70%; in [15] it was 100%; in [16], 90%; in assay [17] it was 100%.
